A word on the Dmax: it is the largest share of the target that was removed. In general, DC50 refers to the concentration at which degradation of the target reaches its halfway point.

This is an account of results in patent publication US12559506B2, “Indazole based compounds and associated methods of use” (Arvinas Operations, Inc., priority 2021, dated 2026).

In the test the target is T1, LRRK2 (endogenous, HiBit tagged) (Homo sapiens, UniProt Q5S007).
T1 construct: endogenous in cells; host or cells: HEK293 cells with HiBit knock-in at the endogenous LRRK2 locus, stably expressing firefly luciferase
In words: Endogenous LRRK2 degradation assay, endogenous gene C-terminally HiBit-tagged in HEK293 cells (Nano-Glo Dual Luciferase). It counts as cell-based. Summed up:
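LRRK2-HiBit quantified via Nano-Glo Dual Luciferase in HEK293 knock-in cells co-expressing firefly luciferase, after 24 h exposure to compound (1 μM final top, 1:3, 11 points). Values normalised to DMSO median per plate and curve-fitted; Alamar Blue viability run alongside.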
In general terms: With HiBiT, luminescence reflects the tagged protein that the partner subunit can reach.

Setting [1] is: endogenous HiBit-tagged LRRK2, HEK293 cells, 24 hours, read-out: **Endogenous WT Dmax (%).
The mark [2] stands for this setting: endogenous HiBit-tagged LRRK2, HEK293 cells, 24 hours, read-out: *Endogenous WT DC50.
Where [3] appears, read: endogenous HiBit-tagged LRRK2 in HEK293 cells, 24 hours treatment, read-out: Endogenous WT DC50.
Where [4] appears, read: endogenous HiBit-tagged LRRK2 in HEK293 cells, 24 hours treatment, read-out: Endogenous WT Dmax.
Where [5] appears, read: endogenous HiBit-tagged LRRK2 in HEK293 cells, 24 hours treatment, read-out: **Endogenous WT Dmax (%).
The mark [6] stands for this setting: endogenous HiBit-tagged LRRK2 in HEK293 cells, 24 hours treatment, read-out: *Endogenous WT DC50.

Each structure is given as a SMILES string. Where two headings read alike, the source gives them in different places.

T1 sequence (Q5S007 whole entry): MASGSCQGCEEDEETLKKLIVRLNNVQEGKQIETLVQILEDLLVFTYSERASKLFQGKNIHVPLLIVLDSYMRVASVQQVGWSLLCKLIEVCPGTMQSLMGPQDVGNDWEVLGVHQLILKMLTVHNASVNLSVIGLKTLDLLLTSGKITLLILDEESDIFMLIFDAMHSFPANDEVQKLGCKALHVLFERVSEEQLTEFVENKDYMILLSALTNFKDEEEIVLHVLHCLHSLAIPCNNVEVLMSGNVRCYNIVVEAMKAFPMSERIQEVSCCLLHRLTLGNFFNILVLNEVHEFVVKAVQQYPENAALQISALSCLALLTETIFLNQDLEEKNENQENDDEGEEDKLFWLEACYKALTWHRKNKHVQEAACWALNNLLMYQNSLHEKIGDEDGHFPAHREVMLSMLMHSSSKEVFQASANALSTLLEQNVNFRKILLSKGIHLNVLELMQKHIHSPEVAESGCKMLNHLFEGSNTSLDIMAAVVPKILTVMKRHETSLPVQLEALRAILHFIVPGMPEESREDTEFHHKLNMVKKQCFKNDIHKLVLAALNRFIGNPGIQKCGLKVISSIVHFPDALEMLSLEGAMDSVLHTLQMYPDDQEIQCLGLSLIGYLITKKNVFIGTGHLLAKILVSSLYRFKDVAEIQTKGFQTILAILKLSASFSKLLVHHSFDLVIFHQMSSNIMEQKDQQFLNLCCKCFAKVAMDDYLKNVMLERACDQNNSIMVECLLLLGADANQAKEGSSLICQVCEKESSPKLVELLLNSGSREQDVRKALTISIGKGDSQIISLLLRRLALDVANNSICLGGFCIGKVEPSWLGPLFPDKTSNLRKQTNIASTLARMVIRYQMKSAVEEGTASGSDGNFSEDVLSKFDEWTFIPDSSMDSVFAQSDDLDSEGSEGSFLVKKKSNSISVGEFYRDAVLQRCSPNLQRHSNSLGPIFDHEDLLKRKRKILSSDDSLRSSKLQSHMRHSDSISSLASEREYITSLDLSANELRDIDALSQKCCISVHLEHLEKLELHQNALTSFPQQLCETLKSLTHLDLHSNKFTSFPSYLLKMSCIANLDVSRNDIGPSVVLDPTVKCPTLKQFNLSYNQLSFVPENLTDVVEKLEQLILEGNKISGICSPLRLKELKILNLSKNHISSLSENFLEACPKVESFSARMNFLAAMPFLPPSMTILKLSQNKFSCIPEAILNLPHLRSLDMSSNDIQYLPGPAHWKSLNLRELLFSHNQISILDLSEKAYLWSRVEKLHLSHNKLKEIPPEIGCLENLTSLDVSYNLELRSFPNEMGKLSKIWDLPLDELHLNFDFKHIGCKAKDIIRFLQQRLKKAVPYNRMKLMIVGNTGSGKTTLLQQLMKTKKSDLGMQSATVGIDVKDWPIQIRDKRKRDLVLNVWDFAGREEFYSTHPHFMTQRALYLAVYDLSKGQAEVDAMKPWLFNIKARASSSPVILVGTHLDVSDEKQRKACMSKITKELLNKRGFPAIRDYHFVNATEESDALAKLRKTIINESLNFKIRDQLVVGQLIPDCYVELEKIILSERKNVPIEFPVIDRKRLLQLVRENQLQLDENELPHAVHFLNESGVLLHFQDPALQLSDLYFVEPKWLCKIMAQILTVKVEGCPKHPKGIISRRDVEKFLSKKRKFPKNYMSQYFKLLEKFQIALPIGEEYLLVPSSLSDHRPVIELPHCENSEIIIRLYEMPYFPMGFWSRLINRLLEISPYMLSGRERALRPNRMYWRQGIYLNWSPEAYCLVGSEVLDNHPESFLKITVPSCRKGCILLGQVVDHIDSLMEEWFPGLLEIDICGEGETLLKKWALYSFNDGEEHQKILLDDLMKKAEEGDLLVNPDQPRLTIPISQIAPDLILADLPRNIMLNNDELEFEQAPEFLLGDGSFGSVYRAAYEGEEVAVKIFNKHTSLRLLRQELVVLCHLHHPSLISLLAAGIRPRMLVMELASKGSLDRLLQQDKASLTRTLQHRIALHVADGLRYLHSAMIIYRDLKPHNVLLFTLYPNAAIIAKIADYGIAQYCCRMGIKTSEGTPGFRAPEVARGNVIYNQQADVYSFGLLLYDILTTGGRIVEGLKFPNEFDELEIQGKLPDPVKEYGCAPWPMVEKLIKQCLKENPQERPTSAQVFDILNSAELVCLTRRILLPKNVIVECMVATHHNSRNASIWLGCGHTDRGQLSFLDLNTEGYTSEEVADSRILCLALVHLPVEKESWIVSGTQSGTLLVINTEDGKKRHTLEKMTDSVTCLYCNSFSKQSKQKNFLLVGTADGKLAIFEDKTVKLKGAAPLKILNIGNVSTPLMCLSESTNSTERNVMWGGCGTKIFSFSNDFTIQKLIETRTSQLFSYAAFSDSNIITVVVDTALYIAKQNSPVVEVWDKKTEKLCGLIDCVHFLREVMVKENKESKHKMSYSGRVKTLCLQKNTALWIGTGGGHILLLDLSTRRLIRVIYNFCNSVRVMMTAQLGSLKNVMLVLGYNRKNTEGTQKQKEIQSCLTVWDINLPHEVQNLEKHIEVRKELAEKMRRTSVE

On to `CC1(Oc2ccc3[nH]nc(-c4cc(N5CCC(CN6CCN(CC7CCN(c8ccc9c(c8F)CN(C8CCC(=O)NC8=O)C9=O)CC7)CC6)CC5)ncn4)c3c2)CC1` (centres unmarked) [Compound 181, 3-[4-fluoro-5-[4-[[4-[[1-[6-[5-(1-methylcyclopropoxy)-1H-indazol-3-yl]pyrimidin-4-yl]-4-piperidyl]methyl]piperazin-1-yl]methyl]-1-piperidyl]-1-oxo-isoindolin-2-yl]piperidine-2,6-dione], for which, under setting [1], the Dmax was at least 70%. Moreover, the 50% degradation concentration (DC50) under setting [2] is under 10 nM.

Take `CC1(Oc2cc3c(-c4cc(N5CCC(O[C@H]6C[C@H](OC7CCN(c8ccc9c(c8F)CN(C8CCC(=O)NC8=O)C9=O)CC7)C6)CC5)ncn4)n[nH]c3cn2)CC1` (some centres unmarked) [Compound 218, 3-[4-fluoro-5-[4-[3-[[1-[6-[5-(1-methylcyclopropoxy)-1H-pyrazolo[3,4-c]pyridin-3-yl]pyrimidin-4-yl]-4-piperidyl]oxy]cyclobutoxy]-1-piperidyl]-1-oxo-isoindolin-2-yl]piperidine-2,6-dione]: the 50% degradation concentration (DC50) under setting [3] is under 10 nM. Under setting [4], the greatest degradation seen (Dmax) is 50 to 70%.

Consider `COc1c(N2CCC(CN3CCN(CC4CCN(c5cc(-c6n[nH]c7cnc(OC8(C)CC8)cc67)ncn5)CC4)[C@H](C)C3)CC2)ccc2c1CN(C1CCC(=O)NC1=O)C2=O` (stereo partly drawn) [Compound 257, 3-[4-methoxy-5-(4-{[(3R)-3-methyl-4-[(1-{6-[5-(1-methylcyclopropoxy)-1H-pyrazolo[3,4-c]pyridin-3-yl]pyrimidin-4-yl}piperidin-4-yl)methyl]piperazin-1-yl]methyl}piperidin-1-yl)-1-oxo-2,3-dihydro-1H-isoindol-2-yl]piperidine-2,6-dione], for which, under setting [5], the Dmax was in the range of 50 to 70%. Also, the half-maximal degradation concentration (DC50) under setting [6] was under 10 nM.

Consider `CC1(Oc2cc3c(-c4cc(N5CCC(CN6CC[C@@H](CN7CCN(c8ccc9c(c8F)CN(C8CCC(=O)NC8=O)C9=O)CC7)[C@@H](F)C6)CC5)ncn4)n[nH]c3cc2F)CC1` (some centres unmarked) [Compound 294, 3-[4-fluoro-5-(4-{[(3r,4s)-3-fluoro-1-[(1-{6-[6-fluoro-5-(1-methylcyclopropoxy)-1H-indazol-3-yl]pyrimidin-4-yl}piperidin-4-yl)methyl]piperidin-4-yl]methyl}piperazin-1-yl)-1-oxo-2,3-dihydro-1H-isoindol-2-yl]piperidine-2,6-dione], for which the maximal degradation (Dmax) under setting [5] lay within 50 to 70%. The 50% degradation concentration (DC50) under setting [6] is under 10 nM.

Turning to `COc1c(N2CCN(C[C@@H]3CO[C@@H](CN4CCN(c5cc(-c6[nH]nc7ccc(OC8(C)CC8)cc67)ncn5)CC4)CO3)CC2)ccc2c1CN(C1CCC(=O)NC1=O)C2=O` (some centres unmarked) [Compound 291, 3-[4-methoxy-5-(4-{[(2r,5s)-5-[(4-{6-[5-(1-methylcyclopropoxy)-2H-indazol-3-yl]pyrimidin-4-yl}piperazin-1-yl)methyl]-1,4-dioxan-2-yl]methyl}piperazin-1-yl)-1-oxo-2,3-dihydro-1H-isoindol-2-yl]piperidine-2,6-dione], the Dmax under setting [5] was at least 70%. In addition, the DC50 under setting [6] is under 10 nM.

For `CC1(Oc2ccc3[nH]nc(-c4cnnc(N5CCC(O[C@H]6CC[C@H](CN7CCN(c8ccc9c(c8F)CN(C8CCC(=O)NC8=O)C9=O)CC7)CC6)CC5)c4)c3c2)CC1` (some centres unmarked) [Compound 377, 3-[4-fluoro-1-oxo-5-(4-{[(1r,4r)-4-[(1-{5-[5-(1-methylcyclopropoxy)-1H-indazol-3-yl]pyridazin-3-yl}piperidin-4-yl)oxy]cyclohexyl]methyl}piperazin-1-yl)-2,3-dihydro-1H-isoindol-2-yl]piperidine-2,6-dione], the 50% degradation concentration (DC50) under setting [3] is under 10 nM. The Dmax under setting [4] lay in the range of 50 to 70%.

Turning to `COc1cc2c(cc1N1CCC(CN3CCC(F)(CN4CCN(c5cc(-c6[nH]nc7ccc(OC8(C)CC8)cc67)ncn5)CC4)CC3)CC1)CN(C1CCC(=O)NC1=O)C2=O` (centres unmarked) [Compound 198, 3-[5-[4-[[4-fluoro-4-[[4-[6-[5-(1-methylcyclopropoxy)-2H-indazol-3-yl]pyrimidin-4-yl]piperazin-1-yl]methyl]-1-piperidyl]methyl]-1-piperidyl]-6-methoxy-1-oxo-isoindolin-2-yl]piperidine-2,6-dione], under setting [1], the Dmax was at least 70%. For the same compound, under setting [2], the 50% degradation concentration (DC50) was under 10 nM.

On to `C[C@@H]1CN(CC2CCN(c3ccc4c(c3F)CN(C3CCC(=O)NC3=O)C4=O)CC2)CCN1CC1CCN(c2cc(-c3n[nH]c4cnc(OC5(C)CC5)cc34)ncn2)CC1` (stereo partly drawn) [Compound 263, 3-[4-fluoro-5-(4-{[(3R)-3-methyl-4-[(1-{6-[5-(1-methylcyclopropoxy)-1H-pyrazolo[3,4-c]pyridin-3-yl]pyrimidin-4-yl}piperidin-4-yl)methyl]piperazin-1-yl]methyl}piperidin-1-yl)-1-oxo-2,3-dihydro-1H-isoindol-2-yl]piperidine-2,6-dione], for which the greatest degradation seen (Dmax) under setting [5] is at least 70%. For the same compound, under setting [6], the half-maximal degradation concentration (DC50) is under 10 nM.

As to `CC1(Oc2cc3c(-c4cc(N5CCC(CN6CCN(CC7CCN(c8ccc9c(c8F)CN(C8CCC(=O)NC8=O)C9=O)CC7)CC6(C)C)CC5)ncn4)n[nH]c3cn2)CC1` (centres unmarked) [Compound 247, 3-{5-[4-({3,3-dimethyl-4-[(1-{6-[5-(1-methylcyclopropoxy)-1H-pyrazolo[3,4-c]pyridin-3-yl]pyrimidin-4-yl}piperidin-4-yl)methyl]piperazin-1-yl}methyl)piperidin-1-yl]-4-fluoro-1-oxo-2,3-dihydro-1H-isoindol-2-yl}piperidine-2,6-dione], the DC50 under setting [3] was under 10 nM. Besides, under setting [4], the greatest degradation seen (Dmax) fell in the range of 50 to 70%.

As to `COc1c(N2CC3(CCN([C@H]4C[C@H](OC5CCN(c6cc(-c7[nH]nc8ccc(OC9(C)CC9)cc78)ncn6)CC5)C4)CC3)C2)ccc2c1CN(C1CCC(=O)NC1=O)C2=O` (some centres unmarked) [Compound 344, 3-(4-methoxy-1-oxo-5-{7-[(1r,3r)-3-[(1-{6-[5-(1-methylcyclopropoxy)-2H-indazol-3-yl]pyrimidin-4-yl}piperidin-4-yl)oxy]cyclobutyl]-2,7-diazaspiro[3.5]nonan-2-yl}-2,3-dihydro-1H-isoindol-2-yl)piperidine-2,6-dione], under setting [5], the Dmax is 50 to 70%. The DC50 under setting [6] was under 10 nM.

In the case of `CC1(Oc2ccc3[nH]nc(-c4cc(N5CCC(CN6CCC(F)(CC7CCN(c8c(F)cc9c(c8F)CN(C8CCC(=O)NC8=O)C9=O)CC7)CC6)CC5)ncn4)c3c2)CC1` (centres unmarked) [Compound 242, 3-{4,6-difluoro-5-[4-({4-fluoro-1-[(1-{6-[5-(1-methylcyclopropoxy)-1H-indazol-3-yl]pyrimidin-4-yl}piperidin-4-yl)methyl]piperidin-4-yl}methyl)piperidin-1-yl]-1-oxo-2,3-dihydro-1H-isoindol-2-yl}piperidine-2,6-dione], the DC50 under setting [3] was under 10 nM. Moreover, the greatest degradation seen (Dmax) under setting [4] fell in the range of 50 to 70%.

As to `CC1(Oc2ccc3n[nH]c(-c4cc(N5CCC(O[C@H]6CC[C@H](OC7CCN(c8ccc9c(c8F)CN(C8CCC(=O)NC8=O)C9=O)CC7)C6)CC5)ncn4)c3c2)CC1` (mixture of isomers) [Compound 240, 3-[4-fluoro-5-[4-[(1S,3S)-3-[[1-[6-[5-(1-methylcyclopropoxy)-2H-indazol-3-yl]pyrimidin-4-yl]-4-piperidyl]oxy]cyclopentoxy]-1-piperidyl]-1-oxo-isoindolin-2-yl]piperidine-2,6-dione and 3-[4-fluoro-5-[4-[(1R,3R)-3-[[1-[6-[5-(1-methylcyclopropoxy)-2H-indazol-3-yl]pyrimidin-4-yl]-4-piperidyl]oxy]cyclopentoxy]-1-piperidyl]-1-oxo-isoindolin-2-yl]piperidine-2,6-dione], the half-maximal degradation concentration (DC50) under setting [3] was under 10 nM. Further, under setting [4], the Dmax lay in the range of 50 to 70%.

As for `CC1(Oc2cc3c(-c4cc(N5CCN(C[C@H]6CC[C@H](OC7CCN(c8ccc9c(c8F)CN(C8CCC(=O)NC8=O)C9=O)CC7)CC6)CC5)ncn4)n[nH]c3cn2)CC1` (some centres unmarked) [Compound 258, 3-[4-fluoro-1-oxo-5-(4-{[(1r,4r)-4-[(4-{6-[5-(1-methylcyclopropoxy)-1H-pyrazolo[3,4-c]pyridin-3-yl]pyrimidin-4-yl}piperazin-1-yl)methyl]cyclohexyl]oxy}piperidin-1-yl)-2,3-dihydro-1H-isoindol-2-yl]piperidine-2,6-dione], under setting [5], the Dmax is 50 to 70%. Besides, the DC50 under setting [6] was under 10 nM.

With `CC1(Oc2ccc3[nH]nc(-c4ccnc(N5CCC(O[C@H]6CC[C@H](CN7CCN(c8ccc9c(c8F)CN(C8CCC(=O)NC8=O)C9=O)CC7)CC6)CC5)c4)c3n2)CC1` (some centres unmarked) [Compound 375, 3-(4-fluoro-5-(4-(((1r,4r)-4-((1-(4-(5-(1-methylcyclopropoxy)-1H-pyrazolo[4,3-b]pyridin-3-yl)pyridin-2-yl)piperidin-4-yl)oxy)cyclohexyl)methyl)piperazin-1-yl)-1-oxoisoindolin-2-yl)piperidine-2,6-dione], the DC50 under setting [3] was under 10 nM. The Dmax under setting [4] was 50 to 70%.

`COc1c(N2CCC(N3CC(F)(CC4CCN(c5cc(-c6[nH]nc7ccc(OC8(C)CC8)cc67)ncn5)CC4)C3)CC2)ccc2c1CN(C1CCC(=O)NC1=O)C2=O` (centres unmarked) [Compound 345, 3-(5-(4-(3-fluoro-3-((1-(6-(5-(1-methylcyclopropoxy)-2H-indazol-3-yl)pyrimidin-4-yl)piperidin-4-yl)methyl)azetidin-1-yl)piperidin-1-yl)-4-methoxy-1-oxoisoindolin-2-yl)piperidine-2,6-dione]: under setting [5], the Dmax was 50 to 70%. The DC50 under setting [6] was under 10 nM.

As for `COc1c(N2CC3(CCN(CC4CCN(c5cc(-c6n[nH]c7ccc(OC8(C)CC8)cc67)ncn5)CC4)CC3(F)F)C2)ccc2c1CN(C1CCC(=O)NC1=O)C2=O` (centres unmarked) [Compound 332, 3-(5-{5,5-difluoro-7-[(1-{6-[5-(1-methylcyclopropoxy)-1H-indazol-3-yl]pyrimidin-4-yl}piperidin-4-yl)methyl]-2,7-diazaspiro[3.5]nonan-2-yl}-4-methoxy-1-oxo-2,3-dihydro-1H-isoindol-2-yl)piperidine-2,6-dione], the Dmax under setting [5] lay within 50 to 70%. For the same compound, the half-maximal degradation concentration (DC50) under setting [6] is under 10 nM.
